# pIC50: −log10 of the molar value.
# System: 922993-354-T-J3-PDC complex spheroids, viability, % test/control
# Test: Anticancer human tumor 922993-354-T-J3-PDC patient-derived endometrial carcinoma cell line growth inhibition [CLK]
# Settings: for pIC50: curve of first compound; for viability, T/C: stronger effect = lower value
# Summary of the method: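 Multi-cell-type spheroids combined patient-derived tumor cells with HUVEC endothelial cells and human mesenchymal stem cells. Paired agents were dosed in half-log steps down from about clinical Cmax, or from 10 microM where Cmax was unknown.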
# [1] = second compound 0.0316 µM, first compound 0.0316 µM
# [2] = second compound 0.0316 µM, first compound 0.1 µM
# [3] = second compound 0.0316 µM, first compound 0.316 µM
# [4] = second compound 0.0316 µM, first compound 1 µM
# [5] = second compound 0.0316 µM, first compound 3.16 µM
# [6] = second compound 0.0316 µM, first compound 10 µM
# [7] = second compound 0.1 µM, first compound 0.0316 µM
# [8] = second compound 0.1 µM, first compound 0.1 µM
# [9] = second compound 0.1 µM, first compound 0.316 µM
# [10] = second compound 0.1 µM, first compound 1 µM
# [11] = second compound 0.1 µM, first compound 3.16 µM
# [12] = second compound 0.1 µM, first compound 10 µM
# [13] = second compound 0.316 µM, first compound 0.0316 µM
# [14] = second compound 0.316 µM, first compound 0.1 µM
# [15] = second compound 0.316 µM, first compound 0.316 µM
# [16] = second compound 0.316 µM, first compound 1 µM
# [17] = second compound 0.316 µM, first compound 3.16 µM
# [18] = second compound 0.316 µM, first compound 10 µM
# [19] = second compound 1 µM, first compound 0.0316 µM
# [20] = second compound 1 µM, first compound 0.1 µM
# [21] = second compound 1 µM, first compound 0.316 µM
# [22] = second compound 1 µM, first compound 1 µM
# [23] = second compound 1 µM, first compound 3.16 µM
# [24] = second compound 1 µM, first compound 10 µM
# [25] = second compound 3.16 µM, first compound 0.0316 µM
# [26] = second compound 3.16 µM, first compound 0.1 µM
# [27] = second compound 3.16 µM, first compound 0.316 µM
# [28] = second compound 3.16 µM, first compound 1 µM
# [29] = second compound 3.16 µM, first compound 3.16 µM
# [30] = second compound 3.16 µM, first compound 10 µM
# [31] = second compound 10 µM, first compound 0.0316 µM
# [32] = second compound 10 µM, first compound 0.1 µM
# [33] = second compound 10 µM, first compound 0.316 µM
# [34] = second compound 10 µM, first compound 1 µM
# [35] = second compound 10 µM, first compound 3.16 µM
# [36] = second compound 10 µM, first compound 10 µM
# 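Further: spheroids exposed to the agents for 7 days before readout.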
structure (smiles),measurement,setting,value
CC(C)CC(NC(=O)C(Cc1ccccc1)NC(=O)c1cnccn1)B(O)O (stereo unspecified) + CN1CCN(c2cc(C(=O)Nc3cc4cc(-c5cnn(C)c5)ccc4cn3)ccn2)CC1,pIC50,second compound 0.0316 µM,8.19
same,pIC50,second compound 0.1 µM,8.18
same,pIC50,second compound 0.316 µM,> 9.02
same,pIC50,second compound 1 µM,> 9.02
same,pIC50,second compound 3.16 µM,> 9.02
same,pIC50,second compound 10 µM,> 9.02
same,"viability, T/C","second compound 0.0316 µM, first compound 0.000949 µM",103%
same,"viability, T/C","second compound 0.0316 µM, first compound 0.003 µM",85.5%
same,"viability, T/C","second compound 0.0316 µM, first compound 0.00949 µM",32.6%
same,"viability, T/C","second compound 0.0316 µM, first compound 0.03 µM",6.15%
same,"viability, T/C","second compound 0.0316 µM, first compound 0.0949 µM",1.44%
same,"viability, T/C","second compound 0.0316 µM, first compound 0.3 µM",1.26%
same,"viability, T/C","second compound 0.1 µM, first compound 0.000949 µM",94.7%
same,"viability, T/C","second compound 0.1 µM, first compound 0.003 µM",74.5%
same,"viability, T/C","second compound 0.1 µM, first compound 0.00949 µM",40.2%
same,"viability, T/C","second compound 0.1 µM, first compound 0.03 µM",8.34%
same,"viability, T/C","second compound 0.1 µM, first compound 0.0949 µM",1.08%
same,"viability, T/C","second compound 0.1 µM, first compound 0.3 µM",1.56%
same,"viability, T/C","second compound 0.316 µM, first compound 0.000949 µM",50.3%
same,"viability, T/C","second compound 0.316 µM, first compound 0.003 µM",28.6%
same,"viability, T/C","second compound 0.316 µM, first compound 0.00949 µM",20.6%
same,"viability, T/C","second compound 0.316 µM, first compound 0.03 µM",6.46%
same,"viability, T/C","second compound 0.316 µM, first compound 0.0949 µM",1.39%
same,"viability, T/C","second compound 0.316 µM, first compound 0.3 µM",0.48%
same,"viability, T/C","second compound 1 µM, first compound 0.000949 µM",0.16%
same,"viability, T/C","second compound 1 µM, first compound 0.003 µM",1.6%
same,"viability, T/C","second compound 1 µM, first compound 0.00949 µM",0.98%
same,"viability, T/C","second compound 1 µM, first compound 0.03 µM",0.44%
same,"viability, T/C","second compound 1 µM, first compound 0.0949 µM",0.08%
same,"viability, T/C","second compound 1 µM, first compound 0.3 µM",0.48%
same,"viability, T/C","second compound 3.16 µM, first compound 0.000949 µM",0.1%
same,"viability, T/C","second compound 3.16 µM, first compound 0.003 µM",0.68%
same,"viability, T/C","second compound 3.16 µM, first compound 0.00949 µM",1%
same,"viability, T/C","second compound 3.16 µM, first compound 0.03 µM",0.07%
same,"viability, T/C","second compound 3.16 µM, first compound 0.0949 µM",0.83%
same,"viability, T/C","second compound 3.16 µM, first compound 0.3 µM",0.79%
same,"viability, T/C","second compound 10 µM, first compound 0.000949 µM",0.08%
same,"viability, T/C","second compound 10 µM, first compound 0.003 µM",1.39%
same,"viability, T/C","second compound 10 µM, first compound 0.00949 µM",0.12%
same,"viability, T/C","second compound 10 µM, first compound 0.03 µM",0.16%
same,"viability, T/C","second compound 10 µM, first compound 0.0949 µM",2.52%
same,"viability, T/C","second compound 10 µM, first compound 0.3 µM",2.16%
CC1(C)CCC(CN2CCN(c3ccc(C(=O)NS(=O)(=O)c4ccc(NCC5CCOCC5)c([N+](=O)[O-])c4)c(Oc4cnc5[nH]ccc5c4)c3)CC2)=C(c2ccc(Cl)cc2)C1 + CN1CCN(c2cc(C(=O)Nc3cc4cc(-c5cnn(C)c5)ccc4cn3)ccn2)CC1,pIC50,second compound 0.0316 µM,5.18
same,pIC50,second compound 0.1 µM,5.27
same,pIC50,second compound 0.316 µM,> 7.50
same,pIC50,second compound 1 µM,> 7.50
same,pIC50,second compound 3.16 µM,> 7.50
same,pIC50,second compound 10 µM,> 7.50
same,"viability, T/C",[1],109%
same,"viability, T/C",[2],109%
same,"viability, T/C",[3],97%
same,"viability, T/C",[4],105%
same,"viability, T/C",[5],112%
same,"viability, T/C",[6],18.2%
same,"viability, T/C",[7],97.1%
same,"viability, T/C",[8],90.4%
same,"viability, T/C",[9],79.8%
same,"viability, T/C",[10],97.7%
same,"viability, T/C",[11],87.1%
same,"viability, T/C",[12],7.76%
same,"viability, T/C",[13],40%
same,"viability, T/C",[14],38%
same,"viability, T/C",[15],39.8%
same,"viability, T/C",[16],32.5%
same,"viability, T/C",[17],29.9%
same,"viability, T/C",[18],1.44%
same,"viability, T/C",[19],0.16%
same,"viability, T/C",[20],0.69%
same,"viability, T/C",[21],0.19%
same,"viability, T/C",[22],0.86%
same,"viability, T/C",[23],1.06%
same,"viability, T/C",[24],0.1%
same,"viability, T/C",[25],0.36%
same,"viability, T/C",[26],0.14%
same,"viability, T/C",[27],0.14%
same,"viability, T/C",[28],0.11%
same,"viability, T/C",[29],2.58%
same,"viability, T/C",[30],1.27%
same,"viability, T/C",[31],0.15%
same,"viability, T/C",[32],0.14%
same,"viability, T/C",[33],1.91%
same,"viability, T/C",[34],0.13%
same,"viability, T/C",[35],0.16%
same,"viability, T/C",[36],2.48%
CC1COCCN1c1cc(C2(S(C)(=N)=O)CC2)nc(-c2ccnc3[nH]ccc23)n1 (stereo unspecified) + CN1CCN(c2cc(C(=O)Nc3cc4cc(-c5cnn(C)c5)ccc4cn3)ccn2)CC1,pIC50,second compound 0.0316 µM,< 5.00
same,pIC50,second compound 0.1 µM,< 5.00
same,pIC50,second compound 0.316 µM,> 7.50
same,pIC50,second compound 1 µM,> 7.50
same,pIC50,second compound 3.16 µM,> 7.50
same,pIC50,second compound 10 µM,> 7.50
same,"viability, T/C",[1],122%
same,"viability, T/C",[2],119%
same,"viability, T/C",[3],119%
same,"viability, T/C",[4],120%
same,"viability, T/C",[5],117%
same,"viability, T/C",[6],76.3%
same,"viability, T/C",[7],90.6%
same,"viability, T/C",[8],111%
same,"viability, T/C",[9],111%
same,"viability, T/C",[10],94.6%
same,"viability, T/C",[11],104%
same,"viability, T/C",[12],60.7%
same,"viability, T/C",[13],38.1%
same,"viability, T/C",[14],45.2%
same,"viability, T/C",[15],35.9%
same,"viability, T/C",[16],36.2%
same,"viability, T/C",[17],27.9%
same,"viability, T/C",[18],13.3%
same,"viability, T/C",[19],0.12%
same,"viability, T/C",[20],0.14%
same,"viability, T/C",[21],1.67%
same,"viability, T/C",[22],0.14%
same,"viability, T/C",[23],0.12%
same,"viability, T/C",[24],0.08%
same,"viability, T/C",[25],0.13%
same,"viability, T/C",[26],0.13%
same,"viability, T/C",[27],0.16%
same,"viability, T/C",[28],0.94%
same,"viability, T/C",[29],1.11%
same,"viability, T/C",[30],0.87%
same,"viability, T/C",[31],0.78%
same,"viability, T/C",[32],0.17%
same,"viability, T/C",[33],1.4%
same,"viability, T/C",[34],0.2%
same,"viability, T/C",[35],0.94%
same,"viability, T/C",[36],1.78%

# From PubChem BioAssay AID2060606 (Molecular Pharmacology Branch, DTP, NCI, 2025)
